Patent US20240217978A1 (CHONG KUN DANG PHARMACEUTICAL CORP., priority 2021, published 2024)

What follows are compounds tested against human adenosine A2a receptor (Homo sapiens (Human), UniProt P29274) (assay: A2a receptor binding affinity, [3H]-NECA radioligand binding test). Conditions: [3H]-NECA 37 nM; membrane from HEK-293 cells transfected with human adenosine A2a receptor.
Chain of human adenosine A2a receptor (P29274 whole entry): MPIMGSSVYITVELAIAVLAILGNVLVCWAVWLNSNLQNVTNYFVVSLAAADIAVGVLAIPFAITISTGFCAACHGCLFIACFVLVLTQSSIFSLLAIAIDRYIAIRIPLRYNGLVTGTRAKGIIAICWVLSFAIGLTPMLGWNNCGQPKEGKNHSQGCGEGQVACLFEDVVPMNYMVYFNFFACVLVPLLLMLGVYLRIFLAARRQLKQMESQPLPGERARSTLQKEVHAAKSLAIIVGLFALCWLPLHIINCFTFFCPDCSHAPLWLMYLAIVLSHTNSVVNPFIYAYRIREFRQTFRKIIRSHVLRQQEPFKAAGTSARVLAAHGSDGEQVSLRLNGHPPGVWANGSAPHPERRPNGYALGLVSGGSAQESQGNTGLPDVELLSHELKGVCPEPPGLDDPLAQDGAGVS
Method in brief: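 Membranes from HEK-293 cells expressing human A2a receptor were incubated with [3H]-NECA (final 37 nM) and compound for 1 h at room temperature in 50 mM Tris, 10 mM MgCl2, 1 mM EDTA, pH 7.4. Bound ligand was filtered on PEI-coated plates and counted by scintillation to derive IC50 (μM).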
For `CC(F)(F)CN1CCN(C(=O)[C@@H]2CCCN2c2nc(N)n3nc(-c4ccco4)nc3n2)CC1` [Example 224, (S)-(1-(7-amino-2-(furan-2-yl)-[1,2,4]triazolo[1,5-a][1,3,5]triazin-5-yl)pyrrolidin-2-yl)(4-(2,2-difluoropropyl)piperazin-1-yl)methanone], the IC50 was 6 nM. Work on `Nc1nc(N2CC[C@H]2C(=O)N2CCC(CN3CCC(C(F)(F)F)CC3)CC2)nc2nc(-c3ccco3)nn12` [Example 402, (S)-(1-(7-amino-2-(furan-2-yl)-[1,2,4]triazolo[1,5-a][1,3,5]triazin-5-yl)azetidin-2-yl)(4-((4-(trifluoromethyl)piperidin-1-yl)methyl)piperidin-1-yl)methanone] yielded an IC50 of 10 nM. For `CC(C)(O)CN1CCC(C2CCN(C(=O)[C@@H]3CCCN3c3nc(N)n4nc(-c5ccco5)nc4n3)CC2)CC1` [Example 244, (S)-(1-(7-amino-2-(furan-2-yl)-[1,2,4]triazolo[1,5-a][1,3,5]triazin-5-yl)pyrrolidin-2-yl)(1′-(2-hydroxy-2-methylpropyl)-[4,4′-bipiperidin]-1-yl)methanone], the IC50 was 4 nM. `CC[C@H](Nc1nc(N)n2nc(-c3ccco3)nc2n1)C(=O)N1CCN(C(=O)CC(C)(C)O)CC1` [Example 368, (S)-1-(4-(2-((7-amino-2-(furan-2-yl)-[1,2,4]triazolo[1,5-a][1,3,5]triazin-5-yl)amino)butanoyl)piperazin-1-yl)-3-hydroxy-3-methylbutan-1-one] showed an IC50 of 3 nM. `CCCCN1CCN(C(=O)[C@H](CC(C)C)Nc2nc(N)n3nc(-c4ccco4)nc3n2)CC1` [Example 175, (S)-2-((7-amino-2-(furan-2-yl)-[1,2,4]triazolo[1,5-a][1,3,5]triazin-5-yl)amino)-1-(4-butylpiperazin-1-yl)-4-methylpentan-1-one] was tested, and the IC50 was 12 nM. Compound `Nc1nc(N2CCC[C@H]2C(=O)N2CCN(C3CCC(C(F)(F)F)CC3)CC2)nc2nc(-c3ccco3)nn12` (stereo partly drawn) [Example 155, (S)-(1-(7-amino-2-(furan-2-yl)-[1,2,4]triazolo[1,5-a][1,3,5]triazin-5-yl)pyrrolidin-2-yl)(4-(4-(trifluoromethyl)cyclohexyl)piperazin-1-yl)methanone] has an IC50 of 11 nM. `CC(C)(O)CN1CCN(C(=O)[C@@H]2CCN2c2nc(N)n3nc(-c4ccco4)nc3n2)CC1` [Example 350, (S)-(1-(7-amino-2-(furan-2-yl)-[1,2,4]triazolo[1,5-a][1,3,5]triazin-5-yl)azetidin-2-yl)(4-(2-hydroxy-2-methylpropyl)piperazin-1-yl)methanone] showed an IC50 of 9 nM. Compound `Nc1nc(N2CCC[C@H]2C(=O)N2CCN(C3CCC3)CC2)nc2nc(-c3ccco3)nn12` [Example 392, (S)-(1-(7-amino-2-(furan-2-yl)-[1,2,4]triazolo[1,5-a][1,3,5]triazin-5-yl)pyrrolidin-2-yl)(4-cyclobutylpiperazin-1-yl)methanone] has an IC50 of 9 nM. With `CC(C)(F)CN1CCN(C(=O)[C@@H](Nc2nc(N)n3nc(-c4ccco4)nc3n2)C2CCCCC2)CC1` [Example 147, (S)-2-((7-amino-2-(furan-2-yl)-[1,2,4]triazolo[1,5-a][1,3,5]triazin-5-yl)amino)-2-cyclohexyl-1-(4-(2-fluoro-2-methylpropyl)piperazin-1-yl)ethan-1-one] the IC50 was 3 nM. In the case of `Nc1nc(N2CC[C@H]2C(=O)N2CCN(c3ccc(F)cc3F)CC2)nc2nc(-c3ccco3)nn12` [Example 112, (S)-(1-(7-amino-2-(furan-2-yl)-[1,2,4]triazolo[1,5-a][1,3,5]triazin-5-yl)azetidin-2-yl)(4-(2,4-difluorophenyl)piperazin-1-yl)methanone], the IC50 is reported as 9 nM. `COC[C@H](Nc1nc(N)n2nc(-c3ccco3)nc2n1)C(=O)N1CCN(CC(F)F)CC1` [Example 396, (S)-2-((7-amino-2-(furan-2-yl)-[1,2,4]triazolo[1,5-a][1,3,5]triazin-5-yl)amino)-1-(4-(2,2-difluoroethyl)piperazin-1-yl)-3-methoxypropan-1-one] was tested, and the IC50 was 29 nM. In the case of `CC(C)[C@H](Nc1nc(N)n2nc(-c3ccco3)nc2n1)C(=O)N1CCN(C(=O)CC(C)(C)O)CC1` [Example 369, 1-(4-((7-amino-2-(furan-2-yl)-[1,2,4]triazolo[1,5-a][1,3,5]triazin-5-yl)-L-valyl)piperazin-1-yl)-3-hydroxy-3-methylbutan-1-one], the IC50 is reported as 14 nM. For `CC(C)NC(=O)N1CCN(C(=O)[C@@H]2CCCN2c2nc(N)n3nc(-c4ccco4)nc3n2)CC1` [Example 116, 4-((7-amino-2-(furan-2-yl)-[1,2,4]triazolo[1,5-a][1,3,5]triazin-5-yl)-L-prolyl)-N-isopropylpiperazin-1-carboxamide], the IC50 was 11 nM. `CC(C)(C)N1CCN(C(=O)[C@@H]2CCCN2c2nc(N)n3nc(-c4ccco4)nc3n2)CC1` [Example 137, (S)-(1-(7-amino-2-(furan-2-yl)-[1,2,4]triazolo[1,5-a][1,3,5]triazin-5-yl)pyrrolidin-2-yl)(4-(tert-butyl)piperazin-1-yl)methanone] showed an IC50 of 48 nM. `Nc1nc(N2CCC[C@H]2C(=O)N2CC3CCC(C2)N3CC(F)(F)F)nc2nc(-c3ccco3)nn12` [Example 204, ((S)-1-(7-amino-2-(furan-2-yl)-[1,2,4]triazolo[1,5-a][1,3,5]triazin-5-yl)pyrrolidin-2-yl)(8-(2,2,2-trifluoroethyl)-3,8-diazabicyclo[3.2.1]octan-3-yl)methanone] gave an IC50 of 13 nM. `C[C@H](Nc1nc(N)n2nc(-c3ccco3)nc2n1)C(=O)N1CCN(c2ccc(F)cc2F)CC1` [Example 9, (S)-2-((7-amino-2-(furan-2-yl)-[1,2,4]triazolo[1,5-a][1,3,5]triazin-5-yl)amino)-1-(4-(2,4-difluorophenyl)piperazin-1-yl)propan-1-one] gave an IC50 of 2.42 nM. Work on `CCC(O)(CC)CN1CCN(C(=O)[C@@H]2CCN2c2nc(N)n3nc(-c4ccco4)nc3n2)CC1` [Example 347, (S)-(1-(7-amino-2-(furan-2-yl)-[1,2,4]triazolo[1,5-a][1,3,5]triazin-5-yl)azetidin-2-yl)(4-(2-ethyl-2-hydroxybutyl)piperazin-1-yl)methanone] yielded an IC50 of 17 nM. In the case of `Nc1nc(N2CCC[C@H]2C(=O)N2C[C@@H]3C[C@H]2CN3Cc2ccc(F)cc2F)nc2nc(-c3ccco3)nn12` [Example 44, ((S)-1-(7-amino-2-(furan-2-yl)-[1,2,4]triazolo[1,5-a][1,3,5]triazin-5-yl)pyrrolidin-2-yl)((1S,4S)-5-(2,4-difluorobenzyl)-2,5-diazabicyclo[2.2.1]heptan-2-yl)methanone], the IC50 is reported as 10 nM. `COCCN1CCN(C(=O)[C@@H]2CCN2c2nc(N)n3nc(-c4ccc(C)o4)nc3n2)CC1` [Example 221, (S)-(1-(7-amino-2-(5-methylfuran-2-yl)-[1,2,4]triazolo[1,5-a][1,3,5]triazin-5-yl)azetidin-2-yl)(4-(2-methoxyethyl)piperazin-1-yl) methanone] was tested, and the IC50 was 10 nM. For `CC(C)(F)CN1CCN(C(=O)[C@@H](Nc2nc(N)n3nc(-c4ccco4)nc3n2)c2ccccc2)CC1` [Example 195, (S)-2-((7-amino-2-(furan-2-yl)-[1,2,4]triazolo[1,5-a][1,3,5]triazin-5-yl)amino)-1-(4-(2-fluoro-2-methylpropyl)piperazin-1-yl)-2-phenylethan-1-one], the IC50 was 3 nM. In the case of `Nc1nc(N2CCC[C@H]2C(=O)N2CCN(CC(F)(F)F)CC23CC3)nc2nc(-c3ccco3)nn12` [Example 342, (S)-(1-(7-amino-2-(furan-2-yl)-[1,2,4]triazolo[1,5-a][1,3,5]triazin-5-yl)pyrrolidin-2-yl)(7-(2,2,2-trifluoroethyl)-4,7-diazaspiro[2.5]octan-4-yl)methanone], the IC50 is reported as 8 nM. `CC(C)[C@H](Nc1nc(N)n2nc(-c3ccco3)nc2n1)C(=O)N1CCN(CC(C)(C)F)CC1` [Example 59, (S)-2-((7-amino-2-(furan-2-yl)-[1,2,4]triazolo[1,5-a][1,3,5]triazin-5-yl)amino)-1-(4-(2-fluoro-2-methylpropyl)piperazin-1-yl)-3-methylbutan-1-one] gave an IC50 of 7 nM. For `COCCN1CCN(C(=O)[C@@H]2CCN2c2nc(N)n3nc(-c4ccco4)nc3n2)CC1` [Example 107, (S)-(1-(7-amino-2-(furan-2-yl)-[1,2,4]triazolo[1,5-a][1,3,5]triazin-5-yl)azetidin-2-yl)(4-(2-methoxyethyl)piperazin-1-yl) methanone], the IC50 was 9 nM. Compound `Nc1nc(N2CCC[C@H]2C(=O)N2CCN(CC(F)F)CC2)cc2nc(-c3ccco3)nn12` [Example 293, (S)-(1-(5-amino-2-(furan-2-yl)-[1,2,4]triazolo[1,5-c]pyrimidin-7-yl)pyrrolidin-2-yl)(4-(2,2-difluoroethyl)piperazin-1-yl)methanone] has an IC50 of 3 nM. With `Nc1nc(N2CCC[C@H]2C(=O)N2CCN(C(=O)C3(C(F)(F)F)CCCCC3)CC2)nc2nc(-c3ccco3)nn12` [Example 77] the IC50 was 0.4 nM. Compound `CC1CN(C(=O)[C@@H]2CCCN2c2nc(N)n3nc(-c4ccco4)nc3n2)CC(C)N1Cc1ccc(F)cc1F` (stereo partly drawn) [Example 49, ((S)-1-(7-amino-2-(furan-2-yl)-[1,2,4]triazolo[1,5-a][1,3,5]triazin-5-yl)pyrrolidin-2-yl)(4-(2,4-difluorobenzyl)-3,5-dimethylpiperazin-1-yl)methanone] has an IC50 of 3 nM. With `Nc1nc(N2C[C@H](O)C[C@H]2C(=O)N2CCN(c3ccc(F)cc3F)CC2)nc2nc(-c3ccco3)nn12` [Example 37] the IC50 was 12 nM. `Nc1nc(N[C@H](C(=O)N2CCN(c3nccs3)CC2)C2CCOCC2)nc2nc(-c3ccco3)nn12` [Example 249, (S)-2-((7-amino-2-(furan-2-yl)-[1,2,4]triazolo[1,5-a][1,3,5]triazin-5-yl)amino)-2-(tetrahydro-2H-pyran-4-yl)-1-(4-(thiazol-2-yl)piperazin-1-yl)ethan-1-one] showed an IC50 of 9 nM. `Nc1nc(N[C@@H](CO)C(=O)N2CCN(c3ccccc3)C(=O)C2)nc2nc(-c3ccco3)nn12` [Example 234] gave an IC50 of 12 nM.
